Literature values, collected in patent US12453729B2, “Pharmaceutical formulations” (AstraZeneca AB, priority 2020, dated 2025).

Legend:
ERα receptor [1] = target: T1, ERα receptor (Homo sapiens, UniProt P03372); details: patient samples; 500 mg monthly dose
T1 sequence (P03372 1-595): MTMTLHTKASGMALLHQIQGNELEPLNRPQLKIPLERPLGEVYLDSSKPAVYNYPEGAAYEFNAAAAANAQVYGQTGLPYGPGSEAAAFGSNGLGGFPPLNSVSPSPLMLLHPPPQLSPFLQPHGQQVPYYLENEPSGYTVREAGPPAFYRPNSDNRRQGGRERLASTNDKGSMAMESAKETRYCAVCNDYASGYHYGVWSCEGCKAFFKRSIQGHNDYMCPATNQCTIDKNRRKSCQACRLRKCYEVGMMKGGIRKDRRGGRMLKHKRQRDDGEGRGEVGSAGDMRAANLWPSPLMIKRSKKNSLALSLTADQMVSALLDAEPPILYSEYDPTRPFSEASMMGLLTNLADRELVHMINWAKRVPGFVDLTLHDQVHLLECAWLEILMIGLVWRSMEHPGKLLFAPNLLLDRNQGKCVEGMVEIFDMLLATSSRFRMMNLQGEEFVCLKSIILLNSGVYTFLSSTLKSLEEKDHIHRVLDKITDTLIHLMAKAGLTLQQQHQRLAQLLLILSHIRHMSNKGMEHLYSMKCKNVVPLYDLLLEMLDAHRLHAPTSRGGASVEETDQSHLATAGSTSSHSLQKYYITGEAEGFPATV

ERα receptor [2] = target: T1, ERα receptor; details: in vitro breast cancer cell line experiments

turnover of the receptor (ERα receptor [1]): less than 50%
down-regulation of the receptor (ERα receptor [2]): complete down-regulation
Compound: C[C@]12CC[C@@H]3c4ccc(O)cc4C[C@@H](CCCCCCCCC[S+]([O-])CCCC(F)(F)C(F)(F)F)[C@H]3[C@@H]1CC[C@@H]2O (some centres unmarked) [Fulvestrant]
